Reference: PubChem BioAssay AID248 (DTP/NCI, 2004)
Where “and” joins values, the source holds several entries; their conditions need not be identical. Equal values may be shown once. Inconclusive results and toxic doses are left out. Rule as the data show it: active = T/C of 150% or more; inactive = T/C below 125%.

Test system: L1210 leukemia ip in BDF1 mice, survival T/C
Test: NCI In Vivo Anticancer Drug Screen. Data for tumor model L1210 Leukemia (intraperitoneal) in B6D2F1 (BDF1) mice
Conditions: endpoint: mean survival time, higher = longer survival
Outline: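 Tumor was transplanted into mice, which were then dosed with test compound or vehicle alone. Survival was recorded for each group, and the treated figure was expressed relative to the control figure.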

[1] = dose: 100.0 mg/kg/injection, schedule: Q04DX003 (ip), vehicle: saline with Tween-80
[2] = dose: 400.0 mg/kg/injection, schedule: Q04DX003 (ip), vehicle: saline with Tween-80
[3] = dose: 200.0 mg/kg/injection, schedule: Q04DX003 (ip), vehicle: saline with Tween-80
[4] = dose: 100.0 mg/kg/injection, schedule: Q01DX001 (ip), vehicle: saline
[5] = dose: 200.0 mg/kg/injection, schedule: Q01DX001 (ip), vehicle: saline
[6] = dose: 400.0 mg/kg/injection, schedule: Q01DX001 (ip), vehicle: saline
[7] = dose: 25.0 mg/kg/injection, schedule: Q04DX003 (ip), vehicle: Klucel (hydroxypropylcellulose) (HPC)
[8] = dose: 50.0 mg/kg/injection, schedule: Q04DX003 (ip), vehicle: Klucel (hydroxypropylcellulose) (HPC)
[9] = dose: 100.0 mg/kg/injection, schedule: Q04DX003 (ip), vehicle: Klucel (hydroxypropylcellulose) (HPC)
[10] = dose: 100.0 mg/kg/injection, schedule: Q01DX009 (ip), vehicle: Klucel (hydroxypropylcellulose) (HPC)

Measured: T/C

O=C(OCC1OC(OC2(COC(=O)c3ccccc3)OC(COC(=O)c3ccccc3)C(OC(=O)c3ccccc3)C2OC(=O)c2ccccc2)C(OC(=O)c2ccccc2)C(OC(=O)c2ccccc2)C1OC(=O)c1ccccc1)c1ccccc1 (stereo not given)
inactive: dose: 100.0 mg/kg/injection, schedule: Q01DX009 (ip), vehicle: saline with Tween-80 95 % of control | dose: 200.0 mg/kg/injection, schedule: Q01DX009 (ip), vehicle: saline with Tween-80 92 % of control | dose: 400.0 mg/kg/injection, schedule: Q01DX009 (ip), vehicle: saline with Tween-80 92 % of control

O=c1[nH]cc(COCC(F)(F)F)c(=O)[nH]1
inactive: dose: 50.0 mg/kg/injection, schedule: Q01DX005 (ip), vehicle: other 106 % of control | dose: 100.0 mg/kg/injection, schedule: Q01DX005 (ip), vehicle: other 95 % of control | dose: 200.0 mg/kg/injection, schedule: Q01DX005 (ip), vehicle: other 106 % of control

CC1(C)CCC(CC(=O)O)(CC(=O)O)CC1
inactive: [1] 95 % of control | [2] 92 % of control

CCOCc1cc([N+](=O)[O-])cc([N+](=O)[O-])c1O
inactive: dose: 5.56 mg/kg/injection, schedule: Q01DX009 (ip), vehicle: saline with Tween-80 90 % of control | dose: 8.33 mg/kg/injection, schedule: Q01DX009 (ip), vehicle: saline with Tween-80 108 % of control | dose: 12.5 mg/kg/injection, schedule: Q01DX009 (ip), vehicle: saline with Tween-80 95 % of control | dose: 18.7 mg/kg/injection, schedule: Q01DX009 (ip), vehicle: saline with Tween-80 104 % of control | dose: 25.0 mg/kg/injection, schedule: Q01DX009 (ip), vehicle: saline with Tween-80 103 % of control | dose: 50.0 mg/kg/injection, schedule: Q01DX009 (ip), vehicle: saline with Tween-80 93 % of control

COC(=O)C1CCC(NS(=O)(=O)c2ccc(C)cc2)CC1 (stereo not given)
inactive: dose: 100.0 mg/kg/injection, schedule: Q01DX001 (ip), vehicle: Klucel (hydroxypropylcellulose) (HPC) 98 % of control | dose: 200.0 mg/kg/injection, schedule: Q01DX001 (ip), vehicle: Klucel (hydroxypropylcellulose) (HPC) 98 % of control | dose: 400.0 mg/kg/injection, schedule: Q01DX001 (ip), vehicle: Klucel (hydroxypropylcellulose) (HPC) 101 % of control

CC(C)=C(c1ccc(Cl)cc1)c1c(N)ncnc1N
inactive: [1] 100 % of control | [3] 100 % of control | [2] 100 % of control

O=S(=O)(ON=C(c1ccc(Cl)cc1)c1ccc(Cl)cc1)c1ccccc1
inactive: dose: 100.0 mg/kg/injection, schedule: Q01DX009 (ip), vehicle: carboxymethylcellulose (CMC) 98 % of control | dose: 100.0 mg/kg/injection, schedule: Q04DX002 (ip), vehicle: carboxymethylcellulose (CMC) 101 % of control and 92 % of control | dose: 100.0 mg/kg/injection, schedule: Q04DX003 (ip), vehicle: carboxymethylcellulose (CMC) 106 % of control | dose: 200.0 mg/kg/injection, schedule: Q01DX009 (ip), vehicle: carboxymethylcellulose (CMC) 95 % of control and 92 % of control | dose: 200.0 mg/kg/injection, schedule: Q04DX002 (ip), vehicle: carboxymethylcellulose (CMC) 102 % of control and 111 % of control | dose: 200.0 mg/kg/injection, schedule: Q04DX003 (ip), vehicle: carboxymethylcellulose (CMC) 93 % of control | dose: 400.0 mg/kg/injection, schedule: Q01DX009 (ip), vehicle: carboxymethylcellulose (CMC) 95 % of control and 101 % of control | dose: 400.0 mg/kg/injection, schedule: Q04DX002 (ip), vehicle: carboxymethylcellulose (CMC) 95 % of control and 101 % of control | dose: 400.0 mg/kg/injection, schedule: Q04DX003 (ip), vehicle: carboxymethylcellulose (CMC) 93 % of control

CCSc1nc(C)cc(Cl)n1
inactive: [1] 100 % of control | [3] 93 % of control

N#CC(C#N)=Cc1csc2ccccc12
inactive: [4] 93 % of control | [5] 102 % of control | [6] 102 % of control

CC(=O)c1ccc(CCCC2CCCC2)cc1
inactive: dose: 100.0 mg/kg/injection, schedule: Q04DX002 (ip), vehicle: Klucel (hydroxypropylcellulose) (HPC) 88 % of control | dose: 200.0 mg/kg/injection, schedule: Q04DX002 (ip), vehicle: Klucel (hydroxypropylcellulose) (HPC) 91 % of control | dose: 400.0 mg/kg/injection, schedule: Q04DX002 (ip), vehicle: Klucel (hydroxypropylcellulose) (HPC) 91 % of control

O=C1CCCCC1C(=O)C(F)(F)F (stereo not given)
inactive: dose: 12.5 mg/kg/injection, schedule: Q01DX009 (ip), vehicle: other 104 % of control | dose: 12.5 mg/kg/injection, schedule: Q04DX003 (ip), vehicle: other 103 % of control | dose: 25.0 mg/kg/injection, schedule: Q01DX009 (ip), vehicle: other 104 % of control | dose: 25.0 mg/kg/injection, schedule: Q04DX003 (ip), vehicle: other 93 % of control | dose: 50.0 mg/kg/injection, schedule: Q01DX009 (ip), vehicle: other 98 % of control | dose: 50.0 mg/kg/injection, schedule: Q04DX003 (ip), vehicle: other 97 % of control | dose: 75.0 mg/kg/injection, schedule: Q01DX009 (ip), vehicle: other 97 % of control | dose: 115.0 mg/kg/injection, schedule: Q01DX009 (ip), vehicle: other 87 % of control | dose: 170.0 mg/kg/injection, schedule: Q01DX009 (ip), vehicle: other 89 % of control

CCOC(=O)Cc1cc(Cl)c2cc(C)ccc2n1
inactive: [4] 92 % of control | [5] 100 % of control | [6] 103 % of control and 89 % of control

C=CCc1cc(CNCCCO)c(O)c(OC)c1
inactive: [7] 93 % of control | [8] 95 % of control | [9] 93 % of control

S=C1N/N=C/NN/C=N/N1
inactive: dose: 10.0 mg/kg/injection, schedule: Q01DX001 (ip), vehicle: saline 105 % of control | dose: 20.0 mg/kg/injection, schedule: Q01DX001 (ip), vehicle: saline 94 % of control

O=C(O)C12CCC(CO)(CC1)CC2
inactive: dose: 50.0 mg/kg/injection, schedule: Q01DX001 (ip), vehicle: saline with Tween-80 103 % of control | dose: 100.0 mg/kg/injection, schedule: Q01DX001 (ip), vehicle: saline with Tween-80 100 % of control | dose: 200.0 mg/kg/injection, schedule: Q01DX001 (ip), vehicle: saline with Tween-80 92 % of control

OCCOc1ccc(OCCO)cc1
inactive: [1] 94 % of control | [3] 97 % of control | [2] 99 % of control

CCN(CC)CCN(CCO)Cc1ccccc1
inactive: [7] 98 % of control | dose: 50.0 mg/kg/injection, schedule: Q01DX009 (ip), vehicle: Klucel (hydroxypropylcellulose) (HPC) 92 % of control | [8] 96 % of control | [10] 100 % of control | [9] 98 % of control and 101 % of control

CC(C)(C)C1CCC(NC(=O)CCl)CC1 (stereo not given)
inactive: [8] 98 % of control | [10] 103 % of control | [9] 96 % of control | dose: 200.0 mg/kg/injection, schedule: Q04DX003 (ip), vehicle: Klucel (hydroxypropylcellulose) (HPC) 102 % of control | dose: 400.0 mg/kg/injection, schedule: Q01DX009 (ip), vehicle: Klucel (hydroxypropylcellulose) (HPC) 94 % of control | dose: 400.0 mg/kg/injection, schedule: Q04DX003 (ip), vehicle: Klucel (hydroxypropylcellulose) (HPC) 104 % of control

Cc1cc(C)c(C(=O)Oc2ccc3ccccc3c2)c(C)c1
inactive: [1] 92 % of control | [3] 92 % of control | [2] 86 % of control

COC(=O)CCC(=O)/C=C1/Nc2ccccc2C1=O
inactive: [1] 92 % of control | [3] 95 % of control | [2] 90 % of control

CCOC(=O)NP(=O)(NC1CCCCC1)NC1CCCCC1
inactive: dose: 50.0 mg/kg/injection, schedule: Q01DX001 (ip), vehicle: alcohol 92 % of control | dose: 100.0 mg/kg/injection, schedule: Q01DX001 (ip), vehicle: alcohol 96 % of control | dose: 200.0 mg/kg/injection, schedule: Q01DX001 (ip), vehicle: alcohol 90 % of control
